In patent publication EP4741383A1, “COMPOUND AND USE THEREOF AS ANTI-CANCER DRUG” (Tyligand Bioscience (Shanghai) Limited, priority 2023, dated 2025):

How the values were obtained:
[1] = target: T1, SHP2 enzyme (catalytic domain, amino acid sequence 224-528) (Homo sapiens, UniProt Q06124); test: SHP2 enzyme inhibition assay (DiFMUP substrate, fluorescence); assay type: biochemical; details: for IC50: SHP2 catalytic domain, DiFMUP substrate, 30 min pre-incubation, read-out: S HP2 I C50; for SHP2 IC50 times lower than control compound 11a-1: relative to 11a-1, IC50 = 0.108 µM
T1 construct: purchased GenScript
T1 sequence (Q06124 224-528): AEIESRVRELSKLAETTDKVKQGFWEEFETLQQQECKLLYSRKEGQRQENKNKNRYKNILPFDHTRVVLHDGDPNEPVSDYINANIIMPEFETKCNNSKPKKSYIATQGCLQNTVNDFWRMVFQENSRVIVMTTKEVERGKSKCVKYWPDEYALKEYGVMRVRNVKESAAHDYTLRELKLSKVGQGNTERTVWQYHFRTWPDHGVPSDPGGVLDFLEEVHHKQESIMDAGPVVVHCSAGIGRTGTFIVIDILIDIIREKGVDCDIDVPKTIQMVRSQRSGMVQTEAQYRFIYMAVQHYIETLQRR
Summary of the method: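 SHP2 catalytic domain (aa 224-528) preincubated 30 min at room temperature with compounds (10-point 3-fold series) in HEPES pH 7.2 buffer with NaCl, EDTA, DTT, BSA, Brij35. DiFMUP from 50 µM working solution added, 5 min reaction; fluorescence 340/450 nm; IC50 from nonlinear dose-response fit.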

KYSE520 = test: CellTiter-Glo cell proliferation inhibition, KYSE520; assay type: cell-based, human; details: for IC50: Homo sapiens, KYSE-520, KYSE520 cells, 120 hours, CellTiter-Glo
Text: In this study, the CellTiter-Glo® Luminescent Cell Viability Assay kit from Promega was used to evaluate the inhibitory effects of the disclosed compounds on the proliferation of cell lines KYSE520 (a human esophageal squamous cell carcinoma cell line dependent on SHP2 for growth), MeWo (a human malignant melanoma cell line), and MV4-11 (an RTK-mutant human acute monocytic leukemia cell line).
KYSE520 cells (Nanjing Kebaio Biotechnology Co., Ltd., Catalog #CBP60658) were thawed by rapidly shaking the cryovial in a 37 °C water bath to thaw within 1 minute. The thawed cell suspension was mixed homogeneously with RPMI 1640 medium (HyClone, Catalog #SH30027.01) containing 10% FBS (ExCell, Catalog #FND500), centrifuged at 1000 rpm for 5 minutes, and the supernatant was discarded. The cell pellet was resuspended in 5 mL of complete culture medium (RPMI 1640 medium containing 10% FBS) and placed in a cell culture flask with 25 cm^2 of bottom area, then cultured in a cell culture incubator at 37 °C, 95% humidity, and 5% CO2. Cell passaging was performed when the cell confluence reached approximately 80%. During cell passaging, the old culture medium was discarded, the cells were washed once with DPBS (Thermo Fisher, Catalog #14190-144), and 1 mL of trypsin (Thermo Fisher, Catalog #25200072) was added to digest the cells. When the cells dispersed into single cells and detached from the bottom of the culture flask, 3 mL of fresh complete culture medium was added to stop the digestion. After gently pipetting the cell suspension, 1/5 of the cell suspension was retained, 5 mL of fresh complete culture medium was added, and after mixing, the cells were placed in a cell culture flask for further culture. Cell plating was performed when the cell confluence again reached approximately 80%. During cell plating, following the cell passaging method, 1/5 of the cell suspension was retained for continued culture, and the remaining 4/5 of the cell suspension was placed in a 15 mL centrifuge tube. Cell viability was determined using the trypan blue exclusion method to ensure that cell viability was above 90%. A cell suspension with a density of 2.22 × 10^4 cells/mL was prepared using complete culture medium, and 135 µL of the cell suspension was added to a 96-well transparent flat-bottom black-walled cell culture plate (Greiner, Catalog #655090), resulting in a cell density of 3000 viable cells per well. A control group containing only complete culture medium without cells and compounds (i.e., culture medium control) and a control group containing cells but no compound (i.e., cell control) were set up. The cell plates were incubated overnight in a cell culture incubator. First, a 10 mM stock solution of the compound (Example compound and positive control compound 11a-1) in DMSO (Damas-beta, catalog #75927R) was serially diluted 3-fold to the 9th concentration, and a 10th concentration containing only DMSO (without compound) was also prepared as a control. Then, the DMSO solutions containing different concentrations of the compound were diluted 100-fold with complete culture medium, resulting in a 1% DMSO concentration in each solution. Finally, 15 µL of each solution was added to the corresponding wells of the cell culture plate, resulting in a starting compound concentration of 10 µM, with a 3-fold dilution between adjacent concentrations, and a final DMSO concentration of 0.1% in the cell culture plate. The cell plates were then incubated in the cell culture incubator for another 120 hours.
For endpoint detection, CellTiter-Glo reagent (Promega, catalog number #G7573, CellTiter-Glo® Luminescent Cell Viability Assay Kit) was melt and each cell plate was moved to room temperature for equilibration for 30 minutes. 75 µL (KYSE520 cells) or 50 µL (MeWo cells and MV 4-11 cells) of CellTiter-Glo was added to each well of the corresponding cell plate. The plates were shaken on a track-mounted shaker for 2 minutes to fully lyse the cells. […]

SMILES | IC50 [1] | IC50 (KYSE520) | SHP2 IC50 times lower than control compound 11a-1 [1] | IC50 against KYSE-520 cells, fold lower than 11a-1 (KYSE520; relative to 11a-1 (1.23 µM))
O=C(Nc1ccc(-c2csc(CO)c2)cc1)C(=O)Nc1ccc(-c2cc3cc(F)c(-c4nnn[nH]4)cc3n2C2CCC2)cc1 [Example 1] | 66 nM | 0.095 µM |  | 
N#CCc1cc(-c2ccc(NC(=O)C(=O)Nc3ccc(-c4cc5cc(F)c(-c6nnn[nH]6)cc5n4C4CCC4)cc3)cc2)cs1 [Example 2] | 64 nM | 0.141 µM |  | 
O=C(Nc1ccc(-c2ccsc2)cc1)C(=O)Nc1ccc(-c2cc3cc(F)c(-c4nnn[nH]4)cc3n2C2CCC2)cc1 [Example 4] | 29 nM |  | 3-4 times | 
CC1(n2c(-c3ccc(NC(=O)C(=O)Nc4ccc(-c5cnn(C6COC6)c5)cc4)cc3)cc3cc(F)c(-c4nnn[nH]4)cc32)CC1 [Example 6] | 73 nM | 0.065 µM |  | 
CC1(n2c(-c3ccc(NC(=O)C(=O)Nc4ccc(-c5cnn(C6CCOCC6)c5)cc4)cc3)cc3cc(F)c(-c4nnn[nH]4)cc32)CC1 [Example 7] | 49 nM | 0.071 µM |  | 
Cn1c(-c2cccc(NC(=O)C(=O)Nc3ccc(-c4ccsc4)cc3)c2)c(I)c2cc(C(=O)O)c(O)cc21 [Example 11a-1, reference compound] | 108 nM | 1.23 µM |  | 
O=C(Nc1ccc(-c2cc3cc(F)c(-c4nnn[nH]4)cc3n2C2CCC2)cc1)C(=O)Nc1ccc(N2CCC(CO)C2)cc1 (centres unmarked) [Example 12] | 48 nM | 0.121 µM |  | 
O=C(Nc1ccc(-c2cc3cc(F)c(-c4nnn[nH]4)cc3n2C2CCC2)cc1)C(=O)Nc1ccc(N2CCC(CCO)C2)cc1 (centres unmarked) [Example 14] | 45 nM | 0.113 µM |  | 
CC1(CO)CCN(c2ccc(NC(=O)C(=O)Nc3ccc(-c4cc5cc(F)c(-c6nnn[nH]6)cc5n4C4CCC4)cc3)cc2)C1 (centres unmarked) [Example 16] | 48 nM | 0.151 µM |  | 
O=C(Nc1ccc(-c2cc3cc(F)c(-c4nnn[nH]4)cc3n2C2CCC2)cc1)C(=O)Nc1ccc(N2CCC(C3COC3)CC2)cc1 [Example 20] | 27 nM | 0.036 µM | 3-4 times | 34 fold
O=C(Nc1ccc(-c2cc3cc(F)c(-c4nnn[nH]4)cc3n2C2CCC2)cc1)C(=O)Nc1ccc(N2CCC(CO)CC2)cc1 [Example 23] | 102 nM |  |  | 
O=C(Nc1ccc(-c2cc3cc(F)c(-c4nnn[nH]4)cc3n2C2CCC2)cc1)C(=O)Nc1ccc(N2CCC(CCO)CC2)cc1 [Example 25] | 59 nM | 0.056 µM |  | 
CC1(n2c(-c3ccc(NC(=O)C(=O)Nc4ccc(N5CCC(CCO)CC5)cc4)cc3)cc3cc(F)c(-c4nnn[nH]4)cc32)CCC1 [Example 26] | 61 nM | 0.126 µM |  | 
CC(O)C1CCN(c2ccc(NC(=O)C(=O)Nc3ccc(-c4cc5cc(F)c(-c6nnn[nH]6)cc5n4C4CCC4)cc3)cc2)CC1 (centres unmarked) [Example 29] | 48 nM | 0.076 µM |  | 
CC(C)(O)C1CCN(c2ccc(NC(=O)C(=O)Nc3ccc(-c4cc5cc(F)c(-c6nnn[nH]6)cc5n4C4CCC4)cc3)cc2)CC1 [Example 33] | 41 nM | 0.042 µM |  | 
CC1(CO)CCN(c2ccc(NC(=O)C(=O)Nc3ccc(-c4cc5cc(F)c(-c6nnn[nH]6)cc5n4C4CCC4)cc3)cc2)CC1 [Example 40] | 60 nM | 0.168 µM |  | 
O=C(Nc1ccc(-c2cc3cc(F)c(-c4nnn[nH]4)cc3n2C2CCC2)cc1)C(=O)Nc1ccc(N2CCOCC2)cc1 [Example 47] | 63 nM |  |  | 
O=C(Nc1ccc(-c2cc3cc(F)c(-c4nnn[nH]4)cc3n2C2CCC2)cc1)C(=O)Nc1ccc(N2CC3(CCCOC3)C2)cc1 [Example 55] | 45 nM | 0.108 µM |  | 
O=C(Nc1ccc(-c2cc3cc(F)c(-c4nnn[nH]4)cc3n2C2CCC2)cc1)C(=O)Nc1ccc(N2CC3(CCOCC3)C2)cc1 [Example 57] | 68 nM | 0.164 µM |  | 
O=C(Nc1ccc(-c2cc3cc(F)c(-c4nnn[nH]4)cc3n2C2CCC2)cc1)C(=O)Nc1ccc(N2CCC3(COC3)C2)cc1 [Example 59] | 62 nM | 0.119 µM |  | 
O=C(Nc1ccc(-c2ccsc2)cc1)C(=O)Nc1ccc(-c2cc3cnc(-c4nnn[nH]4)nc3n2C2CCC2)cc1 [Example 131] | 26 nM |  |  | 
